Laboratory results from the kinase profiling compilation of Christmann-Franck et al. (2016).
One block for each compound: values may come before it.

Tests used:
Assay in all cases: radiometric filter-binding kinase assay
NEK6 (human) = NEK6 (human) (UniProt Q9HC98)
PAK4 (human) = PAK4 (human) (UniProt O96013)
[1] = biological target: STK11 CAB39 STRADA (human) (UniProt Q9Y376+Q7RTN6+Q15831)
[2] = tested on: RPS6KB1 (human), P23443 [T412E]
MKNK2 (human) = MKNK2 (human) (UniProt Q9HBH9)
[3] = tested on: AKT1 (human), P31749 [S473D]
CHEK2 (human) = CHEK2 (human) (UniProt O96017)
NEK2 (human) = NEK2 (human) (UniProt P51955)
STK3 (human) = STK3 (human) (UniProt Q13188)
TBK1 (human) = TBK1 (human) (UniProt Q9UHD2)
TTK (human) = TTK (human) (UniProt P33981)
MKNK1 (human) = MKNK1 (human) (UniProt Q9BUB5)
JAK2 JH1 JH2 (human) = JAK2 JH1 JH2 (human) (UniProt O60674)
MAPK9 (human) = MAPK9 (human) (UniProt P45984)
IKBKB (human) = IKBKB (human) (UniProt O14920); settings: compound 0.1 µM
NTRK1 (human) = NTRK1 (human) (UniProt P04629)
NUAK1 (human) = NUAK1 (human) (UniProt O60285)
IRAK4 (human) = IRAK4 (human) (UniProt Q9NWZ3)
MAP3K11 (human) = MAP3K11 (human) (UniProt Q16584)
IKBKE (human) = IKBKE (human) (UniProt Q14164)
MAPK3 (human) = MAPK3 (human) (UniProt P27361)
MAPK14 (human) = MAPK14 (human) (UniProt Q16539)
CSNK1D (human) = CSNK1D (human) (UniProt P48730)
MARK2 (human) = MARK2 (human) (UniProt Q7KZI7)
MAP2K1 (human) = MAP2K1 (human) (UniProt Q02750)
PIM1 (human) = PIM1 (human) (UniProt P11309)
EPHB2 (human) = EPHB2 (human) (UniProt P29323)
CaMK1 (human) = CaMK1 (human) (UniProt Q14012)
MARK1 (human) = MARK1 (human) (UniProt Q9P0L2)
DYRK1A (human) = DYRK1A (human) (UniProt Q13627)
MAPK8 (human) = MAPK8 (human) (UniProt P45983)
MARK3 (human) = MARK3 (human) (UniProt P27448)
DYRK3 (human) = DYRK3 (human) (UniProt O43781)
MAPKAPK2 (human) = MAPKAPK2 (human) (UniProt P49137)
RPS6KA1 KD1 KD2 (human) = RPS6KA1 KD1 KD2 (human) (UniProt Q15418)

MAPK3 (human), sequence (P27361 whole entry, looked up): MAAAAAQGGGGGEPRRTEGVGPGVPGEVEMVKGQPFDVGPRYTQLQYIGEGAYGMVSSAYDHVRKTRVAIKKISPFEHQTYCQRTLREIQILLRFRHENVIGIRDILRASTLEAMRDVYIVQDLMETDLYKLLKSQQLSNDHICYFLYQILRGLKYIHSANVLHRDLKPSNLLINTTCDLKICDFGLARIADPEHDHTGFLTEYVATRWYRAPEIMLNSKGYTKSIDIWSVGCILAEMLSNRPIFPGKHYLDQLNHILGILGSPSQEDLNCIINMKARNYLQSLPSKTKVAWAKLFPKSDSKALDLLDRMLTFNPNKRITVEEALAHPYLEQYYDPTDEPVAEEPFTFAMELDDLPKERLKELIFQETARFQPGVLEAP
PIM1 (human), sequence (P11309 whole entry, looked up): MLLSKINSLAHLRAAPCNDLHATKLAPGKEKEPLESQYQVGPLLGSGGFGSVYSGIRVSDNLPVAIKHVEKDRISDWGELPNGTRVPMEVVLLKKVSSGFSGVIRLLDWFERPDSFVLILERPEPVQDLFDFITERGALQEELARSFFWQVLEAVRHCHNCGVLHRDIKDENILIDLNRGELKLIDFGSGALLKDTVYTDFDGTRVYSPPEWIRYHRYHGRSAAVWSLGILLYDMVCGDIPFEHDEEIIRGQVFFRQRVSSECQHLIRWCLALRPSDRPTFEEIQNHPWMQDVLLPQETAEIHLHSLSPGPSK
IRAK4 (human), sequence (Q9NWZ3 whole entry, looked up): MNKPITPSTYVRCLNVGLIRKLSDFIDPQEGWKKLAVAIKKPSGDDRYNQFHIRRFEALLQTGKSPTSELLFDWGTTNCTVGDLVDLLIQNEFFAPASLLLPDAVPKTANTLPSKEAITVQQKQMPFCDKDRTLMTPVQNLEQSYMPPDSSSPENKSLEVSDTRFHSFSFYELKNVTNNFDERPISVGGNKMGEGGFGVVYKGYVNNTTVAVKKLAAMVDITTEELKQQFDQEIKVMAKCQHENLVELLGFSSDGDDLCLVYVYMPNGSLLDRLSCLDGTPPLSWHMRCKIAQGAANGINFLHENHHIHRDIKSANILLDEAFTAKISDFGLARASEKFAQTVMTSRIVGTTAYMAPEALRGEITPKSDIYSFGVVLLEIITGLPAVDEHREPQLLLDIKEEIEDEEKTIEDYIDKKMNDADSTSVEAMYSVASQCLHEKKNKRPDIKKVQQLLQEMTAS
MARK2 (human), sequence (Q7KZI7 whole entry, looked up): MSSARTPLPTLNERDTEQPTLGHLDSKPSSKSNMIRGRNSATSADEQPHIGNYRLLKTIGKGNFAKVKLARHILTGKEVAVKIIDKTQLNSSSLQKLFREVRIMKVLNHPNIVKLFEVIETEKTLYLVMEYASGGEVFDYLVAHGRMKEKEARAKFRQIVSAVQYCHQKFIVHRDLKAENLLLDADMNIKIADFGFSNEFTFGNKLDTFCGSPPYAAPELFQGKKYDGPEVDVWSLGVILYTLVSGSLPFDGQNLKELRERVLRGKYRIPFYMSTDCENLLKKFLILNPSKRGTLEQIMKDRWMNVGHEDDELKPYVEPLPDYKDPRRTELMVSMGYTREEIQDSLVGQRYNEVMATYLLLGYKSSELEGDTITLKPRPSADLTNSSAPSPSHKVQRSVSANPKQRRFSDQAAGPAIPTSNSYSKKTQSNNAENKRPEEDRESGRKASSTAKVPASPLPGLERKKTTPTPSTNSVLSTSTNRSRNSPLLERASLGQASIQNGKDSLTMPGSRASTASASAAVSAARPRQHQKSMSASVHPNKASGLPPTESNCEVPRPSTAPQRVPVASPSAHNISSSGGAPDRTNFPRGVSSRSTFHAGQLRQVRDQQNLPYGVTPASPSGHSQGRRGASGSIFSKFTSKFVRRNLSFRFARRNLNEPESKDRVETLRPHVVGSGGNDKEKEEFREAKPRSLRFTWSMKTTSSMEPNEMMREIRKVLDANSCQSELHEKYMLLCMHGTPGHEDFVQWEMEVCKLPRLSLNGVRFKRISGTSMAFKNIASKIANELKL
MARK3 (human), sequence (P27448 whole entry, looked up): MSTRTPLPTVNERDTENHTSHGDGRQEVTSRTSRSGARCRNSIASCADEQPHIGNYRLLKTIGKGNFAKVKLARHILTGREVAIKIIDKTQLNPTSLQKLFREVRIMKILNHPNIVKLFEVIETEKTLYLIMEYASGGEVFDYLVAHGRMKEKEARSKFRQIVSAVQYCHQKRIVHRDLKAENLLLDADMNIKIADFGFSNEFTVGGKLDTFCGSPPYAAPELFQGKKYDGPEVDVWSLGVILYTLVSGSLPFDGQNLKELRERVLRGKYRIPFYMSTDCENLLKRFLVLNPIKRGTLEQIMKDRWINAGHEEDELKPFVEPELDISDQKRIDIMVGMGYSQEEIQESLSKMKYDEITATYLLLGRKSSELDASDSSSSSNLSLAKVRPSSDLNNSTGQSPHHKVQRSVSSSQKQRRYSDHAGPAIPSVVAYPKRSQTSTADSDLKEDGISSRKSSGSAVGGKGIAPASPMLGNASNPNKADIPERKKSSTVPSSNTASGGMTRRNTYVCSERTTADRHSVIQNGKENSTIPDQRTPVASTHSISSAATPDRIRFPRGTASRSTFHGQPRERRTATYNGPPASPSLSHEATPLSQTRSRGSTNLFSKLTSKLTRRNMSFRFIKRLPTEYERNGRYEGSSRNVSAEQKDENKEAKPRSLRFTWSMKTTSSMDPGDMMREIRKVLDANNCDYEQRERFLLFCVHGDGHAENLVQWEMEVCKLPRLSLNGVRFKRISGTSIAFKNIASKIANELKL
STK3 (human), sequence (Q13188 whole entry, looked up): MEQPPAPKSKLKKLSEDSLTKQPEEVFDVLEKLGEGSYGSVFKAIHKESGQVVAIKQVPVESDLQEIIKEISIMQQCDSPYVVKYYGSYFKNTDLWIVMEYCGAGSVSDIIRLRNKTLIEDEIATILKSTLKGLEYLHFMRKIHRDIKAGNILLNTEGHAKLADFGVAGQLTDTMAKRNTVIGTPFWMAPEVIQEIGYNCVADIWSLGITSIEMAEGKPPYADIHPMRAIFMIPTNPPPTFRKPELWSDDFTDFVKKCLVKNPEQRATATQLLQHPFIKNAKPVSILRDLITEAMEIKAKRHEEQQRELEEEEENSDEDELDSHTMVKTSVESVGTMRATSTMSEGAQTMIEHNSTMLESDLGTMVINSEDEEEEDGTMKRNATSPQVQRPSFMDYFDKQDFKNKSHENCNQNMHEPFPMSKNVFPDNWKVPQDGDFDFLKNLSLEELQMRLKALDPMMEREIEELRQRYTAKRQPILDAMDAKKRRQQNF
RPS6KB1 (human), P23443 [T412E], sequence (P23443 whole entry T412E, looked up): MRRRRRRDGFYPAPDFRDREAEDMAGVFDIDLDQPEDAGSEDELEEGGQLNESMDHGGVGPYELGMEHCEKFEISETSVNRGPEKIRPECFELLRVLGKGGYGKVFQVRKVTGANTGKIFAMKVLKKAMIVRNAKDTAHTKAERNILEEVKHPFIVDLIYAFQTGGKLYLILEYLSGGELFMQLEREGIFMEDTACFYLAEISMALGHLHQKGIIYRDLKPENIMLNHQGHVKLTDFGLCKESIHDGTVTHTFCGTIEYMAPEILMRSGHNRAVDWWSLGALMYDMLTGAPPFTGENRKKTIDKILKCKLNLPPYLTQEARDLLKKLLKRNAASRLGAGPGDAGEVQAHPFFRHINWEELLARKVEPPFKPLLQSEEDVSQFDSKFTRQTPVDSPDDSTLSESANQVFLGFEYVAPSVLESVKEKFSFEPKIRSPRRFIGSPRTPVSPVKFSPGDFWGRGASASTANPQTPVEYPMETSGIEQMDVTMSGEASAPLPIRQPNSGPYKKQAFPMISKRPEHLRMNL
NTRK1 (human), sequence (P04629 whole entry, looked up): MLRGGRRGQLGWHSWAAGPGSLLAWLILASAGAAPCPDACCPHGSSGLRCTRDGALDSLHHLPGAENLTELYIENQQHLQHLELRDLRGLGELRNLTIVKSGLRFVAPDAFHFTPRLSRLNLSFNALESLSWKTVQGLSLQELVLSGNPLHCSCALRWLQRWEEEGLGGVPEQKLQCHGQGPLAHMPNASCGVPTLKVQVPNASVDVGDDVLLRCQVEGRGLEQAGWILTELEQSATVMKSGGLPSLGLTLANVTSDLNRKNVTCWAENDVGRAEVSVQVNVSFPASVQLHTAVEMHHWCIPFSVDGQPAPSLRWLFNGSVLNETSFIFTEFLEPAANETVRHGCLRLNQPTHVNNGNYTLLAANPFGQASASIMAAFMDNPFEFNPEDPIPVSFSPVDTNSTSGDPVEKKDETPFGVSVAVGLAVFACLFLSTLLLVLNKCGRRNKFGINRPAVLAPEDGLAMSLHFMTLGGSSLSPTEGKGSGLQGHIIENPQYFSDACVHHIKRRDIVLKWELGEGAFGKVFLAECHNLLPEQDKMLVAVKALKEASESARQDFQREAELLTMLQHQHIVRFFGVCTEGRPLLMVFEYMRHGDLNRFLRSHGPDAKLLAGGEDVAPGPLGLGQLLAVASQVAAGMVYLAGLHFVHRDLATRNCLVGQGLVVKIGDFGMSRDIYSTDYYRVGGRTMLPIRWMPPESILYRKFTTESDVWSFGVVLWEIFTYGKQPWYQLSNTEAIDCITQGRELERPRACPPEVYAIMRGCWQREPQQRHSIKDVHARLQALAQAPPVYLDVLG
AKT1 (human), P31749 [S473D], sequence (P31749 whole entry S473D, looked up): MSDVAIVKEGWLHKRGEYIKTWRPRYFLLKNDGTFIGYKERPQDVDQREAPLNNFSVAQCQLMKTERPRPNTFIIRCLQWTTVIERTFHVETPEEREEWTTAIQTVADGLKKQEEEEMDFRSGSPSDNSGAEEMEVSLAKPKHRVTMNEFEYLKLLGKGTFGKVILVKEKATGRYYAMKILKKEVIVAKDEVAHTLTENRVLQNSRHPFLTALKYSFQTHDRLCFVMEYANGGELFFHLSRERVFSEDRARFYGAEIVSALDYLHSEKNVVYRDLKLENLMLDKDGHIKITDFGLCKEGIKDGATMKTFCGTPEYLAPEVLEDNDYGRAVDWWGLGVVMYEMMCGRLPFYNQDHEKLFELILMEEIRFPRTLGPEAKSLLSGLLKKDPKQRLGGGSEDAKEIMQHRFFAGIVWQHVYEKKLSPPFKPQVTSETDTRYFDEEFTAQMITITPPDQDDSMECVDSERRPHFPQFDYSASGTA

residual activity (NEK6 (human); compound 0.1 µM): 101%
residual activity (PAK4 (human); compound 0.1 µM): 99%
residual activity ([1]; compound 0.1 µM): 112%
residual activity ([2]; compound 0.1 µM): 93%
residual activity (MKNK2 (human); compound 0.1 µM): 110%
residual activity ([3]; compound 0.1 µM): 99%
residual activity (CHEK2 (human); compound 0.1 µM): 112%
residual activity (NEK2 (human); compound 0.1 µM): 94%
residual activity (STK3 (human); compound 0.1 µM): 102%
residual activity (TBK1 (human); compound 0.1 µM): 103%
residual activity (TTK (human); compound 0.1 µM): 112%
residual activity (MKNK1 (human); compound 0.1 µM): 107%
residual activity (JAK2 JH1 JH2 (human); compound 0.1 µM): 102%
residual activity (MAPK9 (human); compound 0.1 µM): 88%
residual activity (IKBKB (human)): 119%
residual activity (NTRK1 (human); compound 0.1 µM): 93%
residual activity (NUAK1 (human); compound 0.1 µM): 95%
residual activity (IRAK4 (human); compound 0.1 µM): 100%
residual activity (MAP3K11 (human); compound 0.1 µM): 85%
residual activity (IKBKE (human); compound 0.1 µM): 88%
residual activity (MAPK3 (human); compound 0.1 µM): 93%
residual activity (MAPK14 (human); compound 0.1 µM): 108%
residual activity (CSNK1D (human); compound 0.1 µM): 115%
residual activity (MARK2 (human); compound 0.1 µM): 90%
residual activity (MAP2K1 (human); compound 0.1 µM): 97%
residual activity (PIM1 (human); compound 0.1 µM): 116%
residual activity (EPHB2 (human); compound 0.1 µM): 66%
residual activity (CaMK1 (human); compound 0.1 µM): 106%
residual activity (MARK1 (human); compound 0.1 µM): 101%
residual activity (DYRK1A (human); compound 0.1 µM): 94%
residual activity (MAPK8 (human); compound 0.1 µM): 97%
residual activity (MARK3 (human); compound 0.1 µM): 99%
residual activity (DYRK3 (human); compound 0.1 µM): 114%
SMILES: CN1CCN(CCOc2cc(OC3CCOCC3)c3c(Nc4c(Cl)ccc5c4OCO5)ncnc3c2)CC1

residual activity (NEK6 (human); compound 1.0 µM): 113%
residual activity (NEK6 (human); compound 5.0 µM): 82%
residual activity (MAPKAPK2 (human); compound 1.0 µM): 72%
residual activity (MAPKAPK2 (human); compound 5.0 µM): 64%
residual activity (PAK4 (human); compound 1.0 µM): 93%
residual activity (PAK4 (human); compound 5.0 µM): 104%
residual activity (RPS6KA1 KD1 KD2 (human); compound 1.0 µM): 110%
residual activity (RPS6KA1 KD1 KD2 (human); compound 5.0 µM): 112%
residual activity ([1]; compound 1.0 µM): 132%
residual activity ([1]; compound 5.0 µM): 106%
residual activity ([2]; compound 1.0 µM): 103%
residual activity ([2]; compound 5.0 µM): 106%
residual activity (MKNK2 (human); compound 1.0 µM): 113%
residual activity (MKNK2 (human); compound 5.0 µM): 117%
residual activity ([3]; compound 1.0 µM): 107%
residual activity ([3]; compound 5.0 µM): 106%
residual activity (CHEK2 (human); compound 1.0 µM): 102%
residual activity (CHEK2 (human); compound 5.0 µM): 121%
residual activity (NEK2 (human); compound 1.0 µM): 110%
residual activity (STK3 (human); compound 1.0 µM): 118%
residual activity (STK3 (human); compound 5.0 µM): 125%
residual activity (TBK1 (human); compound 1.0 µM): 104%
residual activity (TTK (human); compound 1.0 µM): 109%
residual activity (TTK (human); compound 5.0 µM): 106%
residual activity (MKNK1 (human); compound 1.0 µM): 116%
residual activity (MKNK1 (human); compound 5.0 µM): 94%
residual activity (JAK2 JH1 JH2 (human); compound 1.0 µM): 116%
residual activity (JAK2 JH1 JH2 (human); compound 5.0 µM): 98%
residual activity (MAPK9 (human); compound 1.0 µM): 114%
residual activity (MAPK9 (human); compound 5.0 µM): 110%
residual activity (NTRK1 (human); compound 1.0 µM): 106%
residual activity (NTRK1 (human); compound 5.0 µM): 83%
residual activity (NUAK1 (human); compound 1.0 µM): 130%
residual activity (NUAK1 (human); compound 5.0 µM): 111%
residual activity (IRAK4 (human); compound 1.0 µM): 106%
residual activity (IRAK4 (human); compound 5.0 µM): 97%
residual activity (MAP3K11 (human); compound 1.0 µM): 104%
residual activity (MAP3K11 (human); compound 5.0 µM): 116%
residual activity (IKBKE (human); compound 1.0 µM): 112%
residual activity (IKBKE (human); compound 5.0 µM): 108%
residual activity (MAPK3 (human); compound 1.0 µM): 105%
residual activity (MAPK3 (human); compound 5.0 µM): 103%
residual activity (MAPK14 (human); compound 1.0 µM): 105%
residual activity (MAPK14 (human); compound 5.0 µM): 111%
residual activity (CSNK1D (human); compound 1.0 µM): 99%
residual activity (MARK2 (human); compound 1.0 µM): 112%
residual activity (MARK2 (human); compound 5.0 µM): 102%
residual activity (MAP2K1 (human); compound 1.0 µM): 96%
residual activity (MAP2K1 (human); compound 5.0 µM): 93%
residual activity (PIM1 (human); compound 1.0 µM): 97%
residual activity (PIM1 (human); compound 5.0 µM): 108%
residual activity (EPHB2 (human); compound 1.0 µM): 72%
residual activity (EPHB2 (human); compound 5.0 µM): 78%
residual activity (CaMK1 (human); compound 1.0 µM): 116%
residual activity (CaMK1 (human); compound 5.0 µM): 104%
residual activity (MARK1 (human); compound 1.0 µM): 100%
residual activity (MARK1 (human); compound 5.0 µM): 94%
residual activity (DYRK1A (human); compound 1.0 µM): 120%
residual activity (DYRK1A (human); compound 5.0 µM): 101%
residual activity (MAPK8 (human); compound 1.0 µM): 104%
residual activity (MAPK8 (human); compound 5.0 µM): 102%
residual activity (MARK3 (human); compound 1.0 µM): 123%
residual activity (MARK3 (human); compound 5.0 µM): 98%
residual activity (DYRK3 (human); compound 1.0 µM): 124%
residual activity (DYRK3 (human); compound 5.0 µM): 106%
SMILES: C=C1C(=O)OC2C1CC/C(C)=C/CCC1(C)OC21 (stereo not drawn)
